Laboratory results reported in ChEMBL document CHEMBL2094260, “Malaria Box Tuberculosis Screening Data”.
In brackets after ≈: the same amount, converted by molar mass.

How the values were obtained:
[1] = test system: Mycobacterium tuberculosis; assay: MMV: Screen against Mtb, single point, non replicating, at 25uM; assay type: functional
[2] = test system: Mycobacterium tuberculosis; assay: MMV: Screen against Mtb, single point, replicating, at 25uM; assay type: functional
[3] = test system: Mycobacterium tuberculosis; assay: MMV: CRC and MIC90 against Mtb (non replicating); assay type: functional
[4] = test system: Mycobacterium tuberculosis; assay: MMV: CRC and MIC90 against Mtb (replicating); assay type: functional
[5] = MMV: Cytotoxicity CRC and LD50 against HepG2; assay type: toxicity, cell-based; settings: human, HepG2 cells; read-out: LD50 (the source's name)

Structure (SMILES) | inhibition at 25 µM [1] [%] | inhibition at 25 µM [2] [%] | MIC90 [3] [µM] | MIC90 [4] [µM] | CC50 [5] [µM]
O=C(Nc1ccc(Br)cc1)Nc1cccc(Cl)c1 | 38.6 | 59.6 | > 100 | 44.6 (≈ 14.5 µg/mL) | 18.6
Cc1cc(Nc2cccc(F)c2)nc(NCc2ccccc2)n1 | 5.92 | 98.3 | > 100 | 16.4 (≈ 5.06 µg/mL) | 7.18
CN1CCN(c2ccc(Nc3c4ccccc4nc4ccccc34)cc2)CC1 | 44.1 | 63.8 | 27.7 (≈ 10.2 µg/mL) | 45.1 (≈ 16.6 µg/mL) | 0.654
COc1cccc(Nc2nc(NCCO)c3ccccc3n2)c1 | 14.8 | 81.8 | > 100 | 27.3 (≈ 8.47 µg/mL) | 26
OC(CNC1CCCCC1)Cn1c2ccccc2c2ccccc21 (configuration not stated) | 14 | 66.6 | > 100 | 55.9 (≈ 18 µg/mL) | 4.97
COc1ccc(C2c3ccc4ccccc4c3Oc3ncn(CCCN(C)C)c(=N)c32)cc1 (configuration not stated) | 47.1 | 98.1 | > 100 | 16.9 (≈ 7.45 µg/mL) | 1.53
FC(F)(F)c1cccc(Nc2nc3ccccc3nc2Nc2cccc(C(F)(F)F)c2)c1 | 102 | 97.6 | 5.75 (≈ 2.58 µg/mL) | 3.33 (≈ 1.49 µg/mL) | 1.59
Clc1ccc2c(N3CCCC3)ccnc2c1 | 17.1 | 68.8 | > 100 | > 100 | 34.9
Cc1cc(C)c2nc(N3CCC(C(=O)NCCCN4CCC(N5CCCCC5)CC4)CC3)sc2c1 | 15.2 | 60.2 | > 100 | 60.8 (≈ 30.3 µg/mL) | 2.55
Cc1cc(NCCN2CCCCC2)c2ccc3ccccc3c2n1 | 15.5 | 71.1 | > 100 | 39.1 (≈ 12.5 µg/mL) | 2.04
Cc1ccc(Nc2nc(NCCO)c3ccccc3n2)cc1C | 7.14 | 97.2 | 82.6 (≈ 25.5 µg/mL) | 9.52 (≈ 2.94 µg/mL) | 5.5
Oc1ccc2ccccc2c1CNc1nc2ccccc2[nH]1 | 35.9 | 76.1 |  | 74.1 (≈ 21.4 µg/mL) | 14.1
OCCNc1nc(Nc2ccc(Cl)c(Cl)c2)nc2ccccc12 | 84.5 | 94 | 20.2 (≈ 7.05 µg/mL) | 3.59 (≈ 1.25 µg/mL) | 7.18
CC(C)CCNCC(O)Cn1c2ccccc2c2ccccc21 (configuration not stated) | 16.6 | 83.6 | > 100 | 22.9 (≈ 7.11 µg/mL) | 4.74
Cc1ccc(Cl)cc1N1CCN(CCCNC(=O)C2CCN(c3nc4ccccc4[nH]3)CC2)CC1 | 26.9 | 75.7 | > 100 | 39 (≈ 19.3 µg/mL) | 4.79
CCn1nc(-c2ccc(C(=O)OC)cc2)nc2c(=O)n(C)c(=O)nc1-2 | 65.1 | 55.9 | 33.6 (≈ 11.5 µg/mL) | > 100 | 1.36
Cc1ccc(NC(=O)Nc2cccc(Cl)c2)cc1F | 19.7 | 80.7 | > 100 | 28.8 (≈ 8.03 µg/mL) | 11.1

Structure (SMILES) | inhibition at 25 µM [1] [%] | inhibition at 25 µM [2] [%] | MIC90 [3] [µM] | MIC90 [4] [µM] | CC50 [5] [µM]
O=C(Nc1ccc(F)c(Cl)c1)Nc1ccc(Cl)c(Cl)c1 | 100 | 97.5 | 11 (≈ 3.67 µg/mL) | 4.03 (≈ 1.34 µg/mL) | 4.33
c1ccc(CNc2nc(Nc3ccccc3)nc3ccccc23)cc1 | 21.2 | 96.2 | 39.4 (≈ 12.9 µg/mL) | 7.46 (≈ 2.43 µg/mL) | 4.16
O=C(Nc1nc(-c2ccccn2)cs1)c1ccccc1Br | 84.5 | 95.3 | 58.2 (≈ 21 µg/mL) | 48.7 (≈ 17.5 µg/mL) | 
Cc1ccc(Nc2nc(-c3ccccn3)cs2)cc1 | 23 | 59.3 | > 100 | 50.7 (≈ 13.6 µg/mL) | 
Cc1c(C)n(Cc2ccc(F)cc2)c2ccc(C(=O)NCc3ccco3)cc12 | 11.7 | 69.5 |  |  | > 100
CCCc1c(CC)c(=N)c2ccccc2n1C | 4 | 16 |  |  | 
CCn1c(CN2CCN(Cc3ccccc3)CC2)nc2cc(NC(=O)c3cccs3)ccc21 | 15.2 | 12.5 |  |  | 
COc1ccc(-c2nonc2NC(=O)c2cccc(C)c2)cc1OC | -4.72 | 3.1 |  |  | 
FC(F)(F)c1cccc(CNC2CCN(CCc3ccccc3)CC2)c1 | 2.96 | 22.8 |  |  | 
CCN(CC)CCn1c(=N)n(CC(O)c2ccc(Cl)c(Cl)c2)c2ccccc21 (configuration not stated) | 10.1 | 36.2 |  |  | 
CCCOCc1cc(CN2CCN(c3cccc(Cl)c3)CC2)c(O)c2ncccc12 | 1.85 | 5.25 |  |  | 
CCOc1cccc(C(=O)Nc2ccc(-c3nc4ccccc4[nH]3)cc2)c1 | 18 | 15.5 |  |  | 
CCCCCC(=O)N1c2ccccc2N=C2CC(c3ccc(OC)c(OC)c3)CC(O)=C2C1c1ccc(C(F)(F)F)cc1 (configuration not stated) | 16 | 12.5 |  |  | 
O=C(NC1CCN(Cc2ccccc2)CC1)c1cc(-c2cccnc2)nc2ccc(Cl)cc12 | 18 | 14.3 |  |  | 
CCOc1cc(Cl)c(C(C)NC(=O)c2ccccc2)cc1OCC (configuration not stated) | 2.61 | 10.4 |  |  | 
COc1cccc(C(=O)Nc2ccc(-c3nc4ccccc4[nH]3)cc2)c1 | 0.862 | 7.2 |  |  | 
